Laboratory results reported in article PMC8069289 (Molecules, 2021).
Entries after “also recorded” stand apart in the source; their conditions may differ. Marks after values point to notes of the source that are not given here.

Tests used:
Drosophila melanogaster [1] = assay: Antigenotoxicity, wing spot test, combined treatment with hydrogen peroxide; format: in vivo; design: key to Total Spots, statistical diagnosis (Kastenbaum-Bowman test): * (positive); Δ (negative); β (inconclusive) vs. respective positive control
Description: All inconclusive and positive results (p > 0.05) were analysed with the nonparametric U-test of Mann, Whitney and Wilcoxon (α = β = 0.05). Anter et al. described the antigenotoxicity method conducted in D. melanogaster. […] Single and twin spots per wing were also recorded and compared with the concurrent negative control as described before. Finally, the inhibition percentages (IP) for the combined treatments were calculated as described by Abraham: IP = [(genotoxin alone-combined treatment)/genotoxin alone] × 100.

HL-60 cells [2] = assay: Cytotoxicity assay, Trypan blue exclusion test; format: cell-based, human; settings: HL-60, 72 h
Description: Promyelocytic human leukaemia (HL-60) immortal cells originated from a person suffering myeloid leukaemia were grown as suspension cultures in RPMI-1640 medium ([…], Sigma-Aldrich, St. Louis, MO, USA) supplemented with 10% heat-inactivated foetal bovine serum (S01805, Linus, Madrid, Spain), L-glutamine 2 mM (G7513, Sigma-Aldrich, St. Louis, MO, USA) and 1× antibiotic-antimycotic solution from a 100× stock solution containing 10,000 units of penicillin, 10 mg of streptomycin and 25 μg of amphotericin B per mL ([…], Sigma-Aldrich, St. Louis, MO, USA). Cells were incubated at 37 °C in a 80% humidified atmosphere 5% CO2. Cultures were plated at 2.5 × 10^4 cells/mL density in 10 mL culture bottles and passed every 2 days. Trypan blue exclusion test was used to determine the cell viability exerted by the assayed compounds, according to our standard procedures. […] After culture, cells were stained with a 1:1 volume ratio of Trypan blue dye (T8154, Sigma-Aldrich, St. Louis, MO, USA) and counted in a Neubauer chamber at 100× magnification. The survival percentage of each treatment compared with the control was recorded in three independent replicates. Data are expressed as mean ± standard deviation of the mean (SEM).

HL-60 cells [3] = assay: Alkaline SCGE (comet assay), Tail Moment; format: cell-based, human; settings: HL-60, 5 h
Description: DNA integrity was assayed by SCGE as described by Olive and Banáth with minor modifications. […] After treatment, cells were washed twice and adjusted to 6.25 × 10^5 cells/mL in PBS. Electrophoresis gels were prepared pouring a 1:4 dilution (cells in liquid low-melting-point agarose at 40 °C, […], Sigma) into slides. Gels were covered with a coverslip and allowed to solidify at RT for 30 min. Once the slides solidified, the coverslips were carefully removed and slides were bathed in freshly prepared lysing solution (2.5 M NaCl, 100 mM Na-EDTA, 10 mM Tris, 250 mM NaOH, 10% DMSO and 1% Triton X-100; pH = 13) for 1 h at 4 °C. Thereafter, slides were equilibrated in alkaline electrophoresis buffer (300 mM NaOH and 1 mM Na-EDTA, pH = 13) for 20-30 min at 4 °C. Once equilibrated, the slides were underwent electrophoresis (12 V, 400 mA for 8 min) in the dark and were immediately neutralized in cold neutral solution (0.4 M Tris-HCl buffer, pH 7.5) for 10 min. […] Gels were stained with 7 μL propidium iodide and photographed in a DM2500 microscope (Leica Microsystems GmBH, Wetzlar, Germany) at 400× magnification. […] A one-way ANOVA and post-hoc Tukey's test with SPSS Statistics for Windows, Version 19.0 (2010, IBM Corporation, Armonk, NY, USA) was applied to determine the effect of the tested compounds on HL-60 cell DNA integrity from the analyses of Tail Moment (TM) data.

[4] = test system: LINE-1 repetitive sequences of HL-60 cells; assay: Methylation status by qMSP, LINE-1; format: cell-based, human; settings: HL-60, 5 h
Description: (§1) Then, DNA was extracted similarly to previously described DNA fragmentation assay. After that, the DNA was converted with bisulphite (EZ DNA Methylation-Gold™ Kit, Zymo Research, Irvine, CA, USA). Bisulphite-modified DNA was used for fluorescence-based real-time quantitative Methylation-Specific PCR (qMSP) using 5 µM of each forward and reverse primer (Isogen Life Science BV, Utrecht, The Netherlands), 2 µL of iTaq™ Universal SYBR® Green Supermix (Bio-Rad Laboratories, Inc., Hercules, CA, USA); it contains antibody-mediated hot-start iTaq DNA polymerase, dNTPs, MgCl2, SYBR® Green I dye, enhancers, stabilizers and a blend of passive reference dyes including ROX and fluorescein) and 25 ng of bisulphite converted genomic DNA.
(§2) PCR conditions included initial denaturalisation at 95 °C for 3 min and amplification which consisted of 45 cycles at 95 °C for 10 s, 60 °C for 15 s and 72 °C for 15 s, taking picture at the end of each elongation cycle. After that, melting curve was determined increasing 0.5 °C each 0.05 s from 60 °C to 95 °C and taking pictures.
QMSP was carried out in 48 well plates in MiniOpticon Real-Time PCR System (MJ Mini Personal Thermal Cycler, Bio-Rad) and were analysed by Bio-Rad CFX Manager 3.1 Software. The housekeeping Alu-C4 was used as a reference to correct for total DNA input. Alu-C4 and the target repetitive elements Alu-M1, LINE-1 and Sat-α were obtained from Isogen Life Science (Utrecht, The Netherlands) and their sequences are shown in Table 4. Each sample was analysed in triplicate.
The results of each CT were obtained from each qMSP. Data were normalised with the housekeeping Alu C4 using the Nikolaidis et al. and Liloglou et al. comparative CT method (ΔΔCT). One-way ANOVA and post-hoc Tukey’s test are used to evaluate the differences between the tested compounds, repetitive elements and concentrations.

[5] = test system: Sat-α repetitive sequences of HL-60 cells; assay: Methylation status by qMSP, Sat-α; format: cell-based, human; settings: HL-60, 5 h
Description: as §1, §2
QMSP was carried out in 48 well plates in MiniOpticon Real-Time PCR System (MJ Mini Personal Thermal Cycler, Bio-Rad) and were analysed by Bio-Rad CFX Manager 3.1 Software. The housekeeping Alu-C4 was used as a reference to correct for total DNA input. […] Each sample was analysed in triplicate. […]

Drosophila melanogaster [6] = assay: Antitoxicity assay, combined treatment with 0.15 M H2O2
Description: Toxicity was assayed according to our standard protocols. CRB and SFRB were tested at five concentrations: 1, 4, 8.12, 32.5 and 130 mg/mL and 0.16, 0.625, 1.25, 5 and 20 mg/mL, respectively. […] Tested groups consisted of larvae fed with Drosophila Instant Medium (Formula 4–24, Carolina Biological Supply, Burlington, NC, USA) supplemented with the assessed compounds concentrations. Emerging adults of all groups were counted and toxicity was determined as the percentage of hatched individuals in each treatment compared with the negative control.

[7] = GLU 11 mM + 0.15 M H2O2, No. of spots in parentheses
[8] = GLU 350 mM + 0.15 M H2O2, No. of spots in parentheses
[9] = TAU 1 mM + 0.15 M H2O2, No. of spots in parentheses
[10] = TAU 32 mM + 0.15 M H2O2, No. of spots in parentheses

How did the “IP (%) inhibition percentage” value (Drosophila melanogaster [1]; GLU 11 mM + 0.15 M H2O2) turn out when `OC[C@H]1OC(O)[C@H](O)[C@@H](O)[C@@H]1O` (stereo partly shown) [GLU, Glucose] was run?
Its value is 76.5%.

What about the “Twin Spots m = 5” value (Drosophila melanogaster [1]; GLU 11 mM + 0.15 M H2O2) of the same compound?
The value was 0 clones per wing.

And the “Large Simple Spots (>2 Cells) m = 5” value (Drosophila melanogaster [1]; [7])?
The value was 0.025 (1) clones per wing.

What about the “Small Single Spots (1–2 Cells) m = 2” value (Drosophila melanogaster [1]; [7]) of the same compound?
Its value is 0.075 (3) clones per wing.

And the “Total Spots m = 2” value (Drosophila melanogaster [1]; [7])?
Its value is 0.1 (4) clones per wing.

What about the “Total Spots, statistical diagnosis (Kastenbaum-Bowman test)” value (“Total Spots, statistical diagnosis” for short) (Drosophila melanogaster [1]; GLU 11 mM + 0.15 M H2O2 vs positive control) of the same compound?
The value was “*”.

And the “IP (%) inhibition percentage” value (Drosophila melanogaster [1]; GLU 350 mM + 0.15 M H2O2)?
Its value is 52.9%.

What about the “Twin Spots m = 5” value (Drosophila melanogaster [1]; GLU 350 mM + 0.15 M H2O2) of the same compound?
The value was 0 clones per wing.

What about the “Large Simple Spots (>2 Cells) m = 5” value (Drosophila melanogaster [1]; [8]) of the same compound?
Its value is 0.025 (1) clones per wing.

What about the “Small Single Spots (1–2 Cells) m = 2” value (Drosophila melanogaster [1]; [8]) of the same compound?
The value was 0.175 (7) clones per wing.

What about the “Total Spots m = 2” value (Drosophila melanogaster [1]; [8]) of the same compound?
The value was 0.2 (8) clones per wing.

And the “Total Spots, statistical diagnosis” value (Drosophila melanogaster [1]; GLU 350 mM + 0.15 M H2O2 vs positive control)?
Its value is “*”.

And the IC50 (HL-60 cells [2]; Homo sapiens, mean ± SD in Figure 3, read-out: IC50 (inhibitory concentration 50))?
The IC50 was 42.7 mM.

And the “TM versus concurrent control (DNA damage)” value (HL-60 cells [3]; three lowest concentrations of the cytotoxicity assay)?
Its value is “significantly induce TM values higher than the concurrent control”.

And the “methylation status of LINE elements” value ([4]; 11 mM GLU)?
The value was “hypomethylated”.

What about the “methylation status of LINE repetitive element” value ([4]; 350 mM GLU) of the same compound?
The value was “reduced the methylation status”.

And the “methylation status of satellite alpha sequences” value ([5]; 350 mM GLU)?
Its value is “hypermethylated”.

What about the “Survival (%) Combined Treatment” value (Drosophila melanogaster [6]; GLU 2.7 mM + 0.15 M hydrogen peroxide) of the same compound?
Its value is 60%.

What about the “Survival (%) Combined Treatment” value (Drosophila melanogaster [6]; GLU 11 mM + 0.15 M hydrogen peroxide) of the same compound?
Its value is 84.35 * %.

What about the “Survival (%) Combined Treatment” value (Drosophila melanogaster [6]; GLU 21.86 mM + 0.15 M hydrogen peroxide) of the same compound?
The value was 88.65 * %.

And the “Survival (%) Combined Treatment” value (Drosophila melanogaster [6]; GLU 87.5 mM + 0.15 M hydrogen peroxide)?
The value was 79 * %.

What about the “Survival (%) Combined Treatment” value (Drosophila melanogaster [6]; GLU 350 mM + 0.15 M hydrogen peroxide) of the same compound?
Its value is 72 * %.

For `NCCS(=O)(=O)O` [TAU, 2-aminoethanesulfonic acid], which “IP (%) inhibition percentage” value (Drosophila melanogaster [1]; TAU 1 mM + 0.15 M H2O2) is on record?
Its value is 70.6%.

What about the “Large Simple Spots (>2 Cells) m = 5” value (Drosophila melanogaster [1]; TAU 1 mM + 0.15 M H2O2) of the same compound?
Its value is 0 clones per wing.

And the “Twin Spots m = 5” value (Drosophila melanogaster [1]; TAU 1 mM + 0.15 M H2O2)?
The value was 0 clones per wing.

What about the “Small Single Spots (1–2 Cells) m = 2” value (Drosophila melanogaster [1]; [9]) of the same compound?
Its value is 0.125 (5) clones per wing.

And the “Total Spots m = 2” value (Drosophila melanogaster [1]; [9])?
The value was 0.125 (5) clones per wing.

And the “Total Spots, statistical diagnosis” value (Drosophila melanogaster [1]; TAU 1 mM + 0.15 M H2O2 vs positive control)?
The value was “*”.

And the “IP (%) inhibition percentage” value (Drosophila melanogaster [1]; TAU 32 mM + 0.15 M H2O2)?
Its value is 38.1%.

What about the “Twin Spots m = 5” value (Drosophila melanogaster [1]; TAU 32 mM + 0.15 M H2O2) of the same compound?
Its value is 0 clones per wing.

What about the “Large Simple Spots (>2 Cells) m = 5” value (Drosophila melanogaster [1]; [10]) of the same compound?
Its value is 0.026 (1) clones per wing.

What about the “Small Single Spots (1–2 Cells) m = 2” value (Drosophila melanogaster [1]; [10]) of the same compound?
Its value is 0.236 (9) clones per wing.

What about the “Total Spots m = 2” value (Drosophila melanogaster [1]; [10]) of the same compound?
The value was 0.263 (10) clones per wing.

What about the “Total Spots, statistical diagnosis” value (Drosophila melanogaster [1]; TAU 32 mM + 0.15 M H2O2 vs positive control) of the same compound?
Its value is “*”.

What about the cell proliferation (HL-60 cells [2]; 2 mM TAU) of the same compound?
Its cell proliferation is “induced a decrease of cell proliferation”.

What about the cytotoxic activity (HL-60 cells [2]; any assayed concentration) of the same compound?
Its cytotoxic activity is “did not show cytotoxic activity”.

And the “IC50 (inhibitory concentration 50)” value (HL-60 cells [2]; mean ± SD in Figure 3)?
Its value is “not found”.

What about the “TM versus concurrent control (DNA damage)” value (HL-60 cells [3]; 0.25 and 2 mM TAU) of the same compound?
Its value is “significantly induce TM values higher than the concurrent control”.

And the “Tail Moment (TM) of representative photograph” value (HL-60 cells [3]; concentration not given)?
The value was 2.49.

What about the “methylation status of LINE-1” value ([4]; TAU highest concentration (32 mM)) of the same compound?
The value was “reduced this methylation status; also recorded: induced hypomethylation”.

And the “methylation status of satellite alpha sequences” value ([5]; both tested concentrations of TAU)?
The value was “significantly hypermethylated”.

What about the “Survival (%) Combined Treatment” value (Drosophila melanogaster [6]; TAU 0.25 mM + 0.15 M hydrogen peroxide) of the same compound?
Its value is 40.76%.

What about the “Survival (%) Combined Treatment” value (Drosophila melanogaster [6]; TAU 1 mM + 0.15 M hydrogen peroxide) of the same compound?
The value was 57.69 * %.

What about the “Survival (%) Combined Treatment” value (Drosophila melanogaster [6]; TAU 2 mM + 0.15 M hydrogen peroxide) of the same compound?
The value was 56.9 * %.

What about the “Survival (%) Combined Treatment” value (Drosophila melanogaster [6]; TAU 8 mM + 0.15 M hydrogen peroxide) of the same compound?
Its value is 40%.

And the “Survival (%) Combined Treatment” value (Drosophila melanogaster [6]; TAU 32 mM + 0.15 M hydrogen peroxide)?
The value was 42.3%.
